Assay type in all cases: biochemical, Neurospora crassa
Data set [1] concerns T1, Head3/Neck1.
T1 construct: gene NcKin3; fusion in one polypeptide: NcKin3 residues 1-429 (motor and neck-linker) replacing the head of NcKin436 (NcKin head elsewhere 1-342); C-terminal PSIVHRKCF (cys) or hTail; dimer; with Kinesin heavy chain
Nature of the data set: coupled enzymatic steady-state ATPase assay. The settings on record: microtubule-activated (pig brain tubulin), 12.5 mM Aces-KOH, 25 mM potassium acetate, 5 mM MgCl2, EGTA, pH 6.8, 22°C; read-out: Steady state ATPase / KM,ATP. The text has this:
coupled enzymatic steady-state ATPase assay on Head3/Neck1

In data set [2] the test system is T1, Head3/Neck1. Put plainly: stopped-flow light scattering, ATP-induced microtubule detachment. The following applies: dissociation of preformed apyrase-treated kinesin-microtubule complex, 0.4 µM complex, 0-1000 µM ATP; read-out: Detachment / K0.5,ATP. The text has this: stopped-flow light scattering, ATP-induced microtubule detachment on Head3/Neck1
Data set [3] concerns T2, Head1/Neck3.
T2 construct: gene NcKin; fusion in one polypeptide: NcKin residues 1-342 (motor and neck-linker) replacing the N-terminal 427 residues of NcKin3_558; C-terminal PSIVHRKCF (cys) or hTail; dimer; with Kinesin-3 motor protein NcKin3
Put plainly: coupled enzymatic steady-state ATPase assay. The settings on record: microtubule-activated (pig brain tubulin), 12.5 mM Aces-KOH, 25 mM potassium acetate, 5 mM MgCl2, EGTA, pH 6.8, 22°C; read-out: Steady state ATPase / KM,ATP. The text has this:
coupled enzymatic steady-state ATPase assay on Head1/Neck3

Substrate in data set [4]: Nc1ncnc2c1ncn2[C@@H]1O[C@H](COP(=O)(O)OP(=O)(O)OP(=O)(O)O)[C@@H](O)[C@H]1O
Nature of the data set: coupled enzymatic steady-state ATPase assay. The following applies: microtubule-activated (pig brain tubulin), 12.5 mM Aces-KOH, 25 mM potassium acetate, 5 mM MgCl2, EGTA, pH 6.8, 22°C. The source says: coupled enzymatic steady-state ATPase assay on NcKin (NcKin436; wildtype reference)

Take `Nc1ncnc2c1ncn2[C@@H]1O[C@H](COP(=O)(O)OP(=O)(O)OP(=O)(O)O)[C@@H](O)[C@H]1O` [ATP]: the Km in data set [1] was found to be 49.1 ± 1.3 µM; in data set [2] it was 105 ± 26.6 µM; in data set [3] it was 33.1 ± 4.6 µM.

B1: NcKin (NcKin436; wildtype reference) (Neurospora crassa OR74A) (protein)
chain: MSSSANSIKVVARFRPQNRVEIESGGQPIVTFQGPDTCTVDSKEAQGSFTFDRVFDMSCKQSDIFDFSIKPTVDDILNGYNGTVFAYGQTGAGKSYTMMGTSIDDPDGRGVIPRIVEQIFTSILSSAANIEYTVRVSYMEIYMERIRDLLAPQNDNLPVHEEKNRGVYVKGLLEIYVSSVQEVYEVMRRGGNARAVAATNMNQESSRSHSIFVITITQKNVETGSAKSGQLFLVDLAGSEKVGKTGASGQTLEEAKKINKSLSALGMVINALTDGKSSHVPYRDSKLTRILQESLGGNSRTTLIINCSPSSYNDAETLSTLRFGMRAKSIKNKAKVNAELSPAELKQMLAKAKTQITSFENYIVNLESEVQVWRGGETVPKEKWVPPLELAITPSKSASTTARPSTPSRLLPESRAETPAISDRAGTPSLPLDKDE
notes: C-terminally truncated NcKin436 (motor, neck-linker, neck coiled coil, partial stalk), expressed from pT7 vector; C-terminal reactive-cysteine peptide … or hTail; dimer
In the case of B1, in data set [4], the Km is 64.5 ± 20.4 µM and the kcat came out at 66.9 ± 18.1 s⁻¹.

The record behind these values is publication PMC2644789, “Dissection of Kinesin's Processivity” (PLoS ONE, 2009).
